Experimental data published in BindingDB's records for doi:10.7270/Q2FT8P6X (n/a, 1994).

Target: Leukotriene B4 receptor (Cavia porcellus)
Test: Negative logarithm of affinity for leukotriene B4 (LTB4) receptor on guinea pig lung membranes

Compound | Ki [nM]
CCc1cc(-c2cccc(C(F)(F)F)c2)c(O)cc1OCCCCCC(C)(C)c1nn[nH]n1 | 66
CCc1cc(-c2ccc(N(C)C)cc2)c(O)cc1OCCCCCC(C)(C)c1nn[nH]n1 | 63
